Measured values: ChEMBL document CHEMBL1150212, “Antitumor agents, 129. Tannins and related compounds as selective cytotoxic agents” (1992)
*1 amine or outer side, *2 acyl side, *3 side chain or, on linkers, in order; H or OH if unused. Where a SMILES comes first, the peptide text is derived from it. Bridges are numbered along the chain shown (N, C = ends). Roman numbers before positions name the chains, in order. [ ]: non-standard residue; d: D form. Actinocin(1to9) = Cc1c2oc3c(C)ccc(C(=O)[*:2])c3nc-2c(C(=O)[*:1])c(N)c1=O; NMeV = CN[C@H](C(=O)O)C(C)C; Sar = CNCC(=O)O

How the values were obtained:
Assay type in all cases: functional
Conditions in all cases: read-out: ED50 (the source's name)
HCT-8 = test: Cytotoxicity against human HCT8 cells by tetrazolium salt-based colorimetric assay
KB = test: Cytotoxicity against human KB cells by tetrazolium salt-based colorimetric assay
A549 = test: Cytotoxicity against human A549 cells by tetrazolium salt-based colorimetric assay
[1] = Cytotoxicity against human […] cells by tetrazolium salt-based colorimetric assay
TE-671 = test: Cytotoxicity against human TE671 cells by tetrazolium salt-based colorimetric assay

SMILES | EC50 (HCT-8) [µg/mL] | EC50 (KB) [µg/mL] | EC50 (A549) [µg/mL] | EC50 [1] [µg/mL] | EC50 (TE-671) [µg/mL]
O=C(O[C@@H]1[C@@H](c2c(O)cc(O)c3c2O[C@H](c2ccc(O)c(O)c2)[C@H](OC(=O)c2cc(O)c(O)c(O)c2)C3)c2c(O)cc(O)c([C@H]3c4c(O)cc(O)cc4O[C@H](c4ccc(O)c(O)c4)[C@@H]3OC(=O)c3cc(O)c(O)c(O)c3)c2O[C@@H]1c1ccc(O)c(O)c1)c1cc(O)c(O)c(O)c1 | > 10 | > 10 | > 10 | 3.05 | > 10
O=C(O)C1=C[C@@H](O)[C@@H](O)[C@H](OC(=O)c2cc(O)c(O)c(O)c2)C1 | > 10 | > 10 | > 10 | > 10 | > 10
O=C(O[C@H]1[C@H](O)C[C@](OC(=O)c2cc(O)c(O)c(O)c2)(C(=O)O)C[C@H]1OC(=O)c1cc(O)c(O)c(O)c1)c1cc(O)c(O)c(O)c1 | > 10 | > 10 | > 10 | > 10 | > 10
O=C(O[C@@H]1C[C@](O)(C(=O)O)C[C@@H](OC(=O)c2cc(O)c(O)c(O)c2)[C@H]1OC(=O)c1cc(O)c(O)c(O)c1)c1cc(O)c(O)c(O)c1 | > 10 | > 10 | > 10 | > 10 | > 10
O=C(O[C@@H]1C[C@](OC(=O)c2cc(O)c(O)c(O)c2)(C(=O)O)C[C@@H](OC(=O)c2cc(O)c(O)c(O)c2)[C@H]1OC(=O)c1cc(O)c(O)c(O)c1)c1cc(O)c(O)c(O)c1 | > 10 | > 10 | > 10 | 0.43 | > 10
O=C(O)C1=C[C@@H](O)[C@@H](O)[C@H](OC(=O)c2cc(O)c(O)c(OC(=O)c3cc(O)c(O)c(O)c3)c2)C1 | > 10 | > 10 | > 10 | > 10 | > 10
O=C(O[C@@H]1[C@@H](c2c(O)cc(O)c3c2O[C@H](c2ccc(O)c(O)c2)[C@H](OC(=O)c2cc(O)c(O)c(O)c2)C3)c2c(O)cc(O)cc2O[C@@H]1c1ccc(O)c(O)c1)c1cc(O)c(O)c(O)c1 | > 10 | > 10 | > 10 | 3.45 | > 10
O=C(O[C@H]1[C@H](O)C[C@](O)(C(=O)O)C[C@H]1O)c1cc(O)c(O)c(O)c1 | > 10 | > 10 | > 10 | > 10 | > 10
O=C(O[C@@H]1O[C@@H]2COC(=O)c3cc(O)c(O)c(O)c3-c3c(cc(O)c(O)c3O)C(=O)O[C@H]2[C@@H]2OC(=O)c3cc(O)c(O)c(O)c3-c3c(cc(O)c(O)c3O)C(=O)O[C@@H]12)c1cc(O)c(O)c(O)c1 | > 10 | > 10 | > 10 | 0.21 | > 10
O=C(OC[C@H]1O[C@@H](OC(=O)c2cc(O)c(O)c(O)c2)[C@H](OC(=O)c2cc(O)c(O)c(O)c2)[C@@H](O)[C@@H]1O)c1cc(O)c(O)c(O)c1 | > 10 | > 10 | > 10 | > 10 | > 10
O=C(OC[C@H]1O[C@@H](OC(=O)c2cc(O)c(O)c(O)c2)[C@H](OC(=O)c2cc(O)c(O)c(O)c2)[C@@H](OC(=O)c2cc(O)c(O)c(O)c2)[C@@H]1O)c1cc(O)c(O)c(O)c1 | > 10 | > 10 | > 10 | > 10 | > 10
O=C(OC[C@H]1O[C@@H](OC(=O)c2cc(O)c(O)c(O)c2)[C@H](O)[C@@H](O)[C@@H]1OC(=O)c1cc(O)c(O)c(O)c1)c1cc(O)c(O)c(O)c1 | > 10 | > 10 | > 10 | > 10 | > 10
O=C(OC[C@H]1OC(O)[C@@](O)(COC(=O)c2cc(O)c(O)c(O)c2)[C@@H]1OC(=O)c1cc(O)c(O)c(O)c1)c1cc(O)c(O)c(O)c1 (stereo partly specified) | > 10 | > 10 | > 10 | > 10 | > 10
O=C1O[C@H]2[C@H](O)[C@@H](CO)OC(O)[C@@H]2OC(=O)c2cc(O)c(O)c(O)c2-c2c1cc(O)c(O)c2O (stereo partly specified) | > 10 | > 10 | > 10 | > 10 | > 10
O=C(O[C@@H]1O[C@H](CO)[C@@H](O)[C@H](O)[C@H]1O)c1cc(O)c(O)c(O)c1 | > 10 | > 10 | > 10 | > 10 | > 10
O=C(O[C@H]1[C@H](O)C[C@](O)(C(=O)O)C[C@H]1OC(=O)c1cc(O)c(O)c(O)c1)c1cc(O)c(O)c(O)c1 | > 10 | > 10 | > 10 | 0.53 | > 10
O=C(OC[C@H]1O[C@@H](O)[C@H](OC(=O)c2cc(O)c(O)c(O)c2)[C@@H](OC(=O)c2cc(O)c(O)c(O)c2)[C@@H]1OC(=O)c1cc(O)c(O)c(O)c1)c1cc(O)c(O)c(O)c1 | > 10 | > 10 | > 10 | > 10 | > 10
O=C(O)c1cc(O)c(O)c(Oc2cc3c(c(O)c2O)-c2c(cc(O)c(O)c2O)C(=O)OC[C@H]2O[C@@H](OC(=O)c4cc(O)c(O)c(O)c4)[C@H](OC(=O)c4cc(O)c(O)c(O)c4)[C@@H](OC(=O)c4cc(O)c(O)c(O)c4)[C@@H]2OC3=O)c1 | > 10 | > 10 | > 10 | 0.44 | > 10
O=C(O[C@@H]1O[C@@H]2COC(=O)c3cc(O)c(O)c(O)c3-c3c(cc(O)c(O)c3O)C(=O)O[C@H]2[C@@H]2OC(=O)c3cc(O)c(O)c(O)c3-c3c(cc(O)c(O)c3O)C(=O)O[C@@H]12)c1cc(O)c(O)c(Oc2c(O)c(O)c(O)c3c2C(=O)O[C@H]2[C@@H]4OC(=O)c5cc(O)c(O)c(O)c5-c5c(cc(O)c(O)c5O)C(=O)O[C@H]4[C@@H](OC(=O)c4cc(O)c(O)c(Oc5c(O)c(O)c(O)c6c5C(=O)O[C@H]5[C@@H]7OC(=O)c8cc(O)c(O)c(O)c8-c8c(cc(O)c(O)c8O)C(=O)O[C@H]7[C@H](OC(=O)c7cc(O)c(O)c(Oc8c(O)c(O)c(O)c9c8C(=O)O[C@H]8[C@@H]%10OC(=O)c%11cc(O)c(O)c(O)c%11-c%11c(cc(O)c(O)c%11O)C(=O)O[C@H]%10[C@@H](OC(=O)c%10cc(O)c(O)c(O)c%10)O[C@@H]8COC(=O)c8cc(O)c(O)c(O)c8-9)c7)O[C@@H]5COC(=O)c5cc(O)c(O)c(O)c5-6)c4)O[C@@H]2COC(=O)c2cc(O)c(O)c(O)c2-3)c1 | > 10 | > 10 | > 10 | 0.5 | > 10
O=C(OC[C@H]1O[C@@H](OC(=O)c2cc(O)c(O)c(O)c2)[C@H](O)[C@@H](O)[C@@H]1O)c1cc(O)c(O)c(O)c1 | > 10 | > 10 | > 10 | > 10 | > 10
O=C(O)C1=C[C@@H](OC(=O)c2cc(O)c(O)c(O)c2)[C@@H](O)[C@H](OC(=O)c2cc(O)c(O)c(O)c2)C1 | > 10 | > 10 | > 10 | > 10 | > 10
Oc1cc(O)c2c(c1)O[C@H](c1ccc(O)c(O)c1)[C@H](O)C2 [(-)-EPICATECHIN] | > 10 | > 10 | > 10 | > 10 | > 10
O=C1OC[C@H]2OC(=O)c3cc(O)c(O)c(O)c3-c3c(O)c(O)c(O)c4c3C(=O)O[C@H]([C@@H]3OC(=O)c5c-4c(O)c(O)c(O)c5[C@@H]3c3c(O)cc(O)c4c3O[C@H](c3ccc(O)c(O)c3)[C@@H](O)C4)[C@H]2OC(=O)c2cc(O)c(O)c(O)c2-c2c1cc(O)c(O)c2O [ACUTISSIMIN A] | > 10 | > 10 | > 10 | 0.61 | > 10
O=C1OC[C@H]2OC(=O)c3cc(O)c(O)c(O)c3-c3c(O)c(O)c(O)c4c3C(=O)O[C@H]([C@H]3OC(=O)c5c-4c(O)c(O)c(O)c5[C@H]3O)[C@@H]2OC(=O)c2cc(O)c(O)c(O)c2-c2c1cc(O)c(O)c2O [CASTALAGIN] | > 10 | > 10 | > 10 | 0.79 | > 10
CC1(C)CC[C@]2(C(=O)O)CC[C@]3(C)C(=CC[C@@H]4[C@@]5(C)C[C@@H](O)[C@@H]6OC(=O)c7cc(O)c(O)c(O)c7-c7c(cc(O)c(O)c7O)C(=O)OC[C@@]6(CO)[C@@H]5CC[C@]43C)[C@@H]2C1 [CASTANOPSINIIN A] | > 10 | > 10 | > 10 | > 10 | > 10
CC1(C)CC[C@]2(C(=O)O[C@@H]3O[C@H](CO)[C@@H](O)[C@H](O)[C@H]3O)CC[C@]3(C)C(=CC[C@@H]4[C@@]5(C)C[C@@H](O)[C@@H]6OC(=O)c7cc(O)c(O)c(O)c7-c7c(cc(O)c(O)c7O)C(=O)OC[C@@]6(CO)[C@@H]5CC[C@]43C)[C@@H]2C1 [CASTANOPSININ A] | > 10 | > 10 | > 10 | > 10 | > 10
O=C(O[C@@H]1COC(=O)c2cc(O)c(O)c(O)c2-c2c(cc(O)c(O)c2O)C(=O)O[C@H]1[C@@H]1OC(=O)c2cc(O)c(O)c(O)c2-c2c(O)c(O)c(O)c3c2C(=O)O[C@H]1[C@@H]3O)c1cc(O)c(O)c(O)c1 [CASUARININ] | > 10 | > 10 | > 10 | 2.24 | > 10
Cc1c2oc3c(C)ccc(C(=O)N[C@@H]4C(=O)N[C@H](C(C)C)C(=O)N5CCC[C@H]5C(=O)N(C)CC(=O)N(C)[C@@H](C(C)C)C(=O)O[C@@H]4C)c3nc-2c(C(=O)N[C@@H]2C(=O)N[C@H](C(C)C)C(=O)N3CCC[C@H]3C(=O)N(C)CC(=O)N(C)[C@@H](C(C)C)C(=O)O[C@@H]2C)c(N)c1=O [DACTINOMYCIN] (I: T[dV]P[Sar][NMeV] / II: T[dV]P[Sar][NMeV]; ester I:1-I:C, II:1-II:C; linker I:N-II:N via Actinocin(1to9)) |  |  |  | < 0.01 | 
